Format in all cases: cell-based
Experiment [1] relates to Chrysosporium keratinophilum. As to the kind of experiment: Agar plate disc-diffusion, antifungal inhibition zone. The settings on record: Sabouraud's dextrose agar, 72 h, DMSO zone subtracted. As for the experimental part: (§1) The agar plate disc-diffusion method was applied. Sterilized filter papers (6 mm in diameter) were wetted with 10 μL of a solution of 6′-(3-chlorophenyl)-2′-ethoxy-3,4′-bipyridine-3′-carbonitrile (4) to be tested, containing […], and the discs were allowed to air dry. The discs were then placed onto the surface of agar plates (nutrient agar for bacteria and Sabouraud's dextrose agar for fungi) seeded with the test organism. Each plate contained 15 mL of the agar medium, previously seeded with 0.2 mL of the broth culture of each organism pregrown for 18 hours. The plates were incubated at 37° C. for 48 h, and 72 h for fungi. The inhibition zones were measured in mm. Discs impregnated with DMSO were used as a control, and its inhibition zone was subtracted from the tested compound actual inhibition zone.
(§2) The results of the antimicrobial testing can be observed in Tables 1 and 2, below, using ciprofloxacin as a reference.

The next experiment relates to Aspergillus flavus. The experiment is described as above. To be noted: Sabouraud's dextrose agar, 72 h, DMSO zone subtracted. As for the experimental part: as §1, §2
A further experiment concerns Bacillus Cereus. As to the kind of experiment: Agar plate disc-diffusion, antibacterial inhibition zone. The settings on record: Gram positive, nutrient agar, 37° C., 48 h, DMSO zone subtracted. As for the experimental part:
as §1, §2
For orientation: A growth-free zone around the sample is the usual read-out of agar diffusion tests.

In another experiment the test system is Staphylococcus aureus. The description is as above. The settings on record: Gram positive, nutrient agar, 37° C., 48 h, DMSO zone subtracted. As for the experimental part: as §1, §2
The test system of another experiment is Pseudomonas aeruginosa. The description is as above. To be noted: Gram negative, nutrient agar, 37° C., 48 h, DMSO zone subtracted. As for the experimental part:
as §1, §2

A further experiment deals with Escherichia coli. The description is as above. The settings on record: Gram negative, nutrient agar, 37° C., 48 h, DMSO zone subtracted. As for the experimental part:
as §1, §2

[2] abbreviates: A = concentration of comp. = 10,000 μL.
Setting [3] is: B = concentration of comp. = 30.000 μL.
[4] abbreviates: C = concentration of comp. = 50,000 μL.

Consider `CCOc1nc(-c2cccc(Cl)c2)cc(-c2cccnc2)c1C#N` [compound 4, 6′-(3-chlorophenyl)-2′-ethoxy-3,4′-bipyridine-3′-carbonitrile], for which the “inhibition zone, Chrysosporium keratinophilum, A” value in experiment [1] (setting [2]) was 24 mm. The “inhibition zone, Chrysosporium keratinophilum, B” value in experiment [1] (setting [3]) was 26 mm. Moreover, the “inhibition zone, Chrysosporium keratinophilum, C” value in experiment [1] (setting [4]) stood at 47 mm. The “inhibition zone, Aspergillus flavus, A” value with Aspergillus flavus (setting [2]) was determined as 21 mm. Also, the “inhibition zone, Aspergillus flavus, B” value with Aspergillus flavus (setting [3]) was 25 mm. Moreover, the “inhibition zone, Aspergillus flavus, C” value in the experiment on Aspergillus flavus (setting [4]) worked out at 36 mm. The “inhibition zone, Bacillus Cereus, A” value in the experiment on Bacillus Cereus (setting [2]) came out at 26 mm. Also, the “inhibition zone, Bacillus Cereus, B” value with Bacillus Cereus (setting [3]) is 28 mm. Besides, the “inhibition zone, Bacillus Cereus, C” value with Bacillus Cereus (setting [4]) is listed as 40 mm. The “inhibition zone, Staphylococcus aureus, A” value with Staphylococcus aureus (setting [2]) is 19 mm. Further, in the experiment on Staphylococcus aureus (setting [3]), the “inhibition zone, Staphylococcus aureus, B” value is given as 26 mm. In addition, the “inhibition zone, Staphylococcus aureus, C” value in the experiment on Staphylococcus aureus (setting [4]) was determined as 33 mm. Also, the “inhibition zone, Pseudomonas aeruginosa, A” value in the experiment on Pseudomonas aeruginosa (setting [2]) was 22 mm. For the same molecule, the “inhibition zone, Pseudomonas aeruginosa, B” value in the experiment on Pseudomonas aeruginosa (setting [3]) is 29 mm. The “inhibition zone, Pseudomonas aeruginosa, C” value with Pseudomonas aeruginosa (setting [4]) turned out to be 38 mm. Further, the “inhibition zone, Escherichia coli, A” value in the experiment with Escherichia coli (setting [2]) worked out at 26 mm. Besides, the “inhibition zone, Escherichia coli, B” value with Escherichia coli (setting [3]) was determined as 36 mm. In the experiment on Escherichia coli (setting [4]), the “inhibition zone, Escherichia coli, C” value is recorded as 48 mm.

These data come from US11926609B1, “6′-(3-chlorophenyl)-2′-ethoxy-3,4′-bipyridine-3′-carbonitrile as antimicrobial compounds” (KING FAISAL UNIVERSITY, priority 2023, dated 2024).
